Measured values reported in patent US20190153538A1, “GENE EXPRESSION BIOMARKERS FOR PERSONALIZED CANCER CARE TO EPIGENETIC MODIFYING AGENTS” (Oryzon Genomics, S.A., priority 2015, published 2019).
Structures can show the parent of a compound that is named as a salt.

What was measured:
[1] = system: 19 small cell lung cancer cell lines; assay: Cell response to LSD1 inhibition: compound potency determination in SCLC cell line panel; assay type: cell-based; settings: 4 days culture
Description: The compound potency determination was performed by culturing 19 small cell lung cancer cell lines […] for 4 days at 37 degrees C. at 5% CO2 in humidified incubators in the presence of serially diluted (trans)-N1-((1R,2S)-2-phenylcyclopropyl)cyclohexane-1,4-diamine bis-hydrochloride.
As a positive control for cytotoxicity the Hsp90 inhibitor 17-N-allylamino-17-demethoxygeldanamycin (17-AAG, a geldanamycin analogue) was used as positive control in serial dilution. Each of the cell lines was propagated and tested in distinct optimized media as recommended by ATCC or cell line source.
Small cell lung cancer cell lines can be categorized as “classic” or “variant”, based on their enzymatic activities, cellular morphologies, and growth phenotypes (Desmond et al., Cancer Res (1985) 45(6):2913-2923; Shoemaker R. H., Nature Reviews Cancer […] 6:813-823). Classic cells lines express elevated levels of L-dopa decarboxylase, bombesin-like immunoreactivity, neuron-specific enolase, and the brain isozyme of creatine kinase; variant cell lines continue to express neuron-specific enolase and the brain isozyme of creatine kinase, but have undetectable levels of L-dopa decarboxylase and bombesin-like immunoreactivity. Unlike classic cell lines, some variant cell lines are amplified for and have increased expression of the c-myc (MYC)oncogene.
Depending on their responses to (trans)-N1-((1R,2S)-2-phenylcyclopropyl)cyclohexane-1,4-diamine bis-hydrochloride, cell lines are classified as either “sensitive” [5], defined as having EC50<0.05 μM, or “resistant”, defined as having EC50>=0.05 μM [R].

H510A xenograft = assay: In vivo tumor growth inhibition, NCI-H510A xenograft model; parameters: species or system athymic nude mice; settings: 40 μg per kg five days on/two days off, after 21 days of dosing, compared to untreated controls
Description: 7-8-week old athymic nude mice animals were injected with 5×10^6 H510A cells resuspended in 100 μL of 1:1 mixture of Matrigel® matrix (Corning Inc., Tewksbury/MA, C. S. Hughes et al., Proteomics (2010) 10(9):1886-90) and PBS. Tumors were staged at 200-300 mm^3 animals and distributed into dosing groups. (trans)-N1-((1R,2S)-2-phenylcyclopropyl)cyclohexane-1,4-diamine was administered at a dose of 40 μg per kg (upk) five days on/two days off until end of study. Tumor volume was measure biweekly using a digital caliber. The study was concluded when mean tumor volume within control group reached 2000 mm^3 or 28 days post-staging. Statistical analysis was performed using unpaired t-test.

Row | SMILES | Cell-based response, classic versus variant SCLC cell lines ([1]; p-value 0.0055) | variant cell lines [V] that are resistant ([1]; resistant = EC50>=0.05 μM) | classic cell lines [C] that are sensitive ([1]; sensitive = EC50<0.05 μM) | tumor growth inhibition (H510A xenograft) [%]
1 | N[C@H]1CC[C@H](N[C@@H]2C[C@H]2c2ccccc2)CC1 [(trans)-N1-((1R,2S)-2-phenylcyclopropyl)cyclohexane-1,4-diamine bis-hydrochloride] | greater in classic SCLC cell lines compared to variant SCLC cell lines | 7 out of 8 | 9 out of 11 | –
2 | N[C@H]1CC[C@H](N[C@@H]2C[C@H]2c2ccccc2)CC1 [(trans)-N1-((1R,2S)-2-phenylcyclopropyl)cyclohexane-1,4-diamine] | – | – | – | 34
